Results taken from article PMC9697131, “Agomelatine, Ketamine and Vortioxetine Attenuate Energy Cell Metabolism—In Vitro Study” (International Journal of Molecular Sciences, 2022).
Where two headings read alike, the source gives them in different places.

Legend:
MAO-B = biological target: T1, MAO-B (Sus scrofa, UniProt Q6PLK3); assay: MAO-B activity, radiolabeled [14C]PEA substrate; assay type: biochemical, pig; settings: for MAO-B Inhibition (type): 0.1–300 µM; for MAO-B Hillslope / MAO-B Residual Activity: mean
T1 construct: from tissue; host or cells: pig brain mitochondria
T1 sequence (Q6PLK3 1-520): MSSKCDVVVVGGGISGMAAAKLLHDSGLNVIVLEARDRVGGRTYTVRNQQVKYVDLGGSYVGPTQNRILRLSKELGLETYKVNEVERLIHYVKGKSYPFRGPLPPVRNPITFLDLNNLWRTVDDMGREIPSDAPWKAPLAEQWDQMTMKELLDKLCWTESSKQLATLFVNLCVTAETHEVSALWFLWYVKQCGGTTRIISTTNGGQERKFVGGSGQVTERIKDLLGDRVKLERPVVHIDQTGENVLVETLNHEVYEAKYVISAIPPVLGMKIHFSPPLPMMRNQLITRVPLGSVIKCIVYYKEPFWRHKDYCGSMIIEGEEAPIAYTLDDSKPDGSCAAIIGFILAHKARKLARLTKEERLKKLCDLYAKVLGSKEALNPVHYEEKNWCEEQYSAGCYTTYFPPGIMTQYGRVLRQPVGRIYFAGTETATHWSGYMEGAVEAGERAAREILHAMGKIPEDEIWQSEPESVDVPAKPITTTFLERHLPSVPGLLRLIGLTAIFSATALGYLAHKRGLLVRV
Method: (§1) Pig brains were obtained from a slaughterhouse. Mitochondrial fraction isolation and purification from brain cortex were performed as previously described. Briefly, grey matter from pig brains was homogenized and crude mitochondrial fraction was isolated and then centrifuged on the sucrose gradient to obtain purified mitochondrial fraction. The freshly purified mitochondria were kept on ice until the assays were performed and were used for measurements of the mitochondrial oxygen consumption rate, measurements of ATP and ROS formation. Frozen mitochondria (stored at −70 °C) were used for the following enzyme activity measurements: ETC complexes, citrate synthase (CS) and malate dehydrogenase (MDH) activity.
(§2) Mitochondria in KH buffer at final concentration of 800 µg/mL were preincubated with the tested drugs in a final concentration range of 0.1–300 µM for 60 min at 37 °C. For each measurement, there was a corresponding drug-free control (DMSO). Radiolabeled substrates ([^3H]serotonin for MAO-A and [^14C]PEA for MAO-B) were added to initiate the reaction. The reaction was carried out at 37 °C for 20 min for MAO-A and for 1 min for MAO-B, and the reaction was stopped by hydrochloric acid. The radioactivity of the organic phases of the extracts were measured by liquid scintillation counting (LS 6000IC, Beckman Instruments, Inc., Fullerton, CA, USA).
(§3) The inhibition of respiration rate and MAO activity were analyzed by A four-parameter logistic regression with Prism software (GraphPad Software, San Diego, CA, USA) was used to analyze the respiratory rate inhibition and activity of MAO. […] The IC50 represents the drug concentration required to inhibit the difference between the baseline and the residual value of the mitochondrial oxygen flux or MAO activity by 50%.

[1] = tested on: complex II+III (succinate cytochrome c oxidoreductase); assay: Complex II+III (succinate cytochrome c oxidoreductase) activity, spectrophotometric; assay type: biochemical; settings: 100 μM drug; pig brain mitochondria; mean ± SD
Method: as §1
Ultrasonication and incubation of mitochondria with the tested drugs for 30 min at 30 °C was performed before measurement with a corresponding drug-free control (DMSO) for every measurement. Mitochondrial enzymes activities were determined spectrophotometrically as absorbance using a GENESYS 180 UV-Vis Spectrophotometer (Thermo Fisher Scientific, Waltham, MA, USA).
The activity of complex II+III was measured with an antimycin A-sensitive cyt c reduction at 550 nm for 3 min, and it was initiated by the addition of cyt c. The medium consisted of KH2PO4, EDTA, KCN and rotenone. The final protein concentration was 50 µg/mL and final drugs concentrations 2.5, 5, 10, 50 and 100 µM. Drug-free control (DMSO) was used as a control for each measurement.

[2] = tested on: complex I-linked ATP content, pig brain mitochondria; assay: Complex I-linked ATP content, bioluminescence; assay type: biochemical; settings: for complex I-linked ATP content (relative to control = 100%): mean ± SD
Method: as §1
The following protocol has been modified and optimized. An ATP Bioluminescence Assay Kit CLS II was used to measure ATP content and kinetics. The luminescence was measured using FluoroMax-3 (Jobin Yvon, Edison, NJ, USA) at 562 nm. Standard curve for ATP determination was prepared from ATP standard in the range from 0 to 600 nM. Tested substances were used at final concentrations 10, 50 and 100 µM, with drug-free control (DMSO) for each measurement and the final protein concentration was 50 µg/mL.
Mitochondria were incubated for 30 min on ice with the MiR05 buffer, tested substances and mitochondria. Consequently, the substrate mix was added, consisting of 5 mM malate and 5 mM pyruvate (for complex I) or 5 mM succinate and 1 μM rotenone (for complex II), 60 μM ADP and 0.75 mM MgCl2·6H2O and incubated for 30 min in 30 °C. Reaction was stopped by heating vials at 100 °C for 2 min. Background luminescence was measured. In total, 230 µL of luciferase reagent was added and total ATP° content for complex I and complex II+III was determined by measuring the luminescence for 1 min. Drug-free control (DMSO) was part of each measurement.

MAO-A = biological target: T2, MAO-A (Sus scrofa, UniProt Q6Q2J0); assay: MAO-A activity, radiolabeled [3H]serotonin substrate; assay type: biochemical, pig; settings: for MAO-A Inhibition (type): 0.1–300 µM; for MAO-A Hillslope / MAO-A Residual Activity: mean
T2 construct: from tissue; host or cells: pig brain mitochondria
T2 sequence (Q6Q2J0 1-527): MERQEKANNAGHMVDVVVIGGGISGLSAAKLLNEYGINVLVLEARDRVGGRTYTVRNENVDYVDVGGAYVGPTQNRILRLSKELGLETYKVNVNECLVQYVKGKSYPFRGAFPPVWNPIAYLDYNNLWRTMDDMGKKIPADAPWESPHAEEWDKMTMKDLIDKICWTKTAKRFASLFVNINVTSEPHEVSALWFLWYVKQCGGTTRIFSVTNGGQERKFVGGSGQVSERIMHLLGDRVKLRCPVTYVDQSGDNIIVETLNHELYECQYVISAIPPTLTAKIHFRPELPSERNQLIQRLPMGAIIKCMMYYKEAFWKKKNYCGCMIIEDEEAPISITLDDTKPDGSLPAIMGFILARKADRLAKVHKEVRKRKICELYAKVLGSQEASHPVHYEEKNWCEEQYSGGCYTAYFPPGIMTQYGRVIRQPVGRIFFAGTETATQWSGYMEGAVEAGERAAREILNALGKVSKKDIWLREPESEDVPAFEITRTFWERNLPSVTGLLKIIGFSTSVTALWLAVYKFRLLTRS
Method: as §1, §2, §3

[3] = mean ± SEM, 4 measurements, read-out: MAO-A IC50

Structure (SMILES): COc1ccc2cccc(CCNC(C)=O)c2c1 [agomelatine]
- MAO-B Inhibition (type) (MAO-B): none
- MAO-B Inhibition (type) (MAO-B; listed as AGO): did not affect its activity at all
- complex II+III activity (relative to control = 100%) [1]: 94.9 ± 4.3%
- complex I-linked ATP content (relative to control = 100%) ([2]; 10 μM drug): 106.4 ± 4.0%
- MAO-A Inhibition (type) (MAO-A): partial
- IC50 (MAO-A; [3]): 8.2 µM
- MAO-A Hillslope (MAO-A; 4 measurements): 3.40
- MAO-A Residual Activity (MAO-A; 4 measurements): 0.190 rel.u.

Structure (SMILES): CNC1(c2ccccc2Cl)CCCCC1=O (stereo not shown) [ketamine]
- IC50 (MAO-B): 51.2 µM
- MAO-B Inhibition (type) (MAO-B): weak
- MAO-B Hillslope (MAO-B; 4 measurements): 2.12
- MAO-B Residual Activity (MAO-B; 4 measurements): 0.707 rel.u.
- complex II+III activity (relative to control = 100%) [1]: 93.6 ± 2.6%
- effect on complex I-linked ATP content (in words) ([2]; 10, 50 and 100 µM): no significant effect
- IC50 (MAO-A): 10.4 µM
- MAO-A Inhibition (type) (MAO-A): partial
- MAO-A Hillslope (MAO-A; 4 measurements): 1.50
- MAO-A Residual Activity (MAO-A; 4 measurements): 0.259 rel.u.

Structure (SMILES): Cc1ccc(Sc2ccccc2N2CCNCC2)c(C)c1 [vortioxetine]
- MAO-B Inhibition (type) (MAO-B): partial
- IC50 (MAO-B; mean ± SEM, 4 measurements, read-out: MAO-B IC50): 18.2 µM
- MAO-B Hillslope (MAO-B; 4 measurements): 2.58
- MAO-B Residual Activity (MAO-B; 4 measurements): 0.229 rel.u.
- complex II+III activity (relative to control = 100%) [1]: 43.9 ± 1.2%
- complex I-linked ATP content (relative to control = 100%) ([2]; 100 μM drug): 119.0 ± 10.6%
- MAO-A Inhibition (type) (MAO-A): partial
- IC50 (MAO-A; [3]): 7.33 µM
- MAO-A Hillslope (MAO-A; 4 measurements): 1.76
- MAO-A Residual Activity (MAO-A; 4 measurements): 0.109 rel.u.
